Data reported in patent US8236792B2, “Substituted pyrrolidine amides as modulators of the histamine H3 receptor” (Janssen Pharmaceutica NV, priority 2008, dated 2012).

What follows are compounds tested against human H3 receptor (Homo sapiens, UniProt Q9Y5N1) (assay: H3 Receptor Binding (Human) Method 2, [125I]-iodoproxyfan competitive radioligand binding). Conditions: Method 2; SK-N-MC cell membranes; [125I]-iodoproxyfan 1 nM; apparent Ki; free base or hydrochloride salt; average of results; read-out: Human H3 Ki.
Sequence of human H3 receptor (Q9Y5N1 whole entry): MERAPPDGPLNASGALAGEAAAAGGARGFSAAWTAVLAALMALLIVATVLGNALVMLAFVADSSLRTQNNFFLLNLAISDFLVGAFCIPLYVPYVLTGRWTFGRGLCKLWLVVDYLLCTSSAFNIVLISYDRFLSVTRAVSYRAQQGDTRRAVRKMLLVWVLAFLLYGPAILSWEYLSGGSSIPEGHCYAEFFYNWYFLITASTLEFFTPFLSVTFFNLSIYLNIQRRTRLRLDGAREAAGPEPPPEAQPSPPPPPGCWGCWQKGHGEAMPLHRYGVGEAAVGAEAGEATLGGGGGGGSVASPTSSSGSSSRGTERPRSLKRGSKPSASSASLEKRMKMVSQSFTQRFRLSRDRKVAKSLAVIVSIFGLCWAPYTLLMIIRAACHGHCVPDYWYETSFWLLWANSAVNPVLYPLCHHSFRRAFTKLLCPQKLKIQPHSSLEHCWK
Design: expressed in transfected cells

| SMILES | Ki |
| --- | --- |
| O=C(N1CCCN(C2CCC2)CC1)[C@@]1(Cc2cccc(F)c2)CCCN1 [Example 168, (2S)-2-(4-Cyclobutyl-[1,4]diazepane-1-carbonyl)-2-(3-fluoro-benzyl)-pyrrolidine] | 44 nM |
| CCOC(=O)N1C[C@@H](Oc2cccc(F)c2)C[C@@H]1C(=O)N1CCCN(C2CCC2)CC1 [Example 127, (2R,4S)-2-(4-Cyclobutyl-[1,4]diazepane-1-carbonyl)-4-(3-fluoro-phenoxy) pyrrolidine-1-carboxylic acid ethyl ester] | 16 nM |

The next lines start with the values.

| Ki | SMILES |
| --- | --- |
| 12 nM | CC(C)N1C[C@@H](Oc2ccc(F)cc2)C[C@@H]1C(=O)N1CCCN(C2CCC2)CC1 [Example 112, (2R,4S)-1-Isopropyl-1-cyclobutyl-2-(4-cyclobutyl-[1,4]diazepane-1-carbonyl)-4-(4-fluoro-phenoxy)-pyrrolidine] |
| 55 nM | O=C([C@@H]1C[C@H](Oc2ccc(F)cc2)CN1C1CC1)N1CCCN(C2CCC2)CC1 [Example 141, (2S,4S)-2-(4-Cyclobutyl-[1,4]diazepan-1-yl)-[1-cyclopropyl-4-(4-fluoro-phenoxy)-pyrrolidin-2-yl]-methanone] |

Same assay, conditions: read-out: Human H3 Ki

| SMILES | Ki |
| --- | --- |
| CC(C)(C)OC(=O)N1CCC[C@]1(Cc1ccccc1)C(=O)N1CCCN(C2CCC2)CC1 [Example 167, (2S)-2-Benzyl-2-(4-cyclobutyl-[1,4]diazepane-1-carbonyl)-pyrrolidine-1-carboxylic acid tert-butyl ester] | 51 nM |
| Cc1cnc(F)cc1O[C@@H]1C[C@@H](C(=O)N2CCCN(C3CCC3)CC2)N(C(=O)OC(C)(C)C)C1 (stereo in doubt) [Example 51, (2S,4R)-2-(4-Cyclobutyl-[1,4]diazepane-1-carbonyl)-4-(2-fluoro-5-methyl-pyridin-4-yloxy)-pyrrolidine-1-carboxylic acid tert-butyl ester] | 2 nM |
| CN(C)[C@@H]1CCN(C(=O)[C@H]2C[C@H](Oc3cccc(F)c3)CN2C(=O)OC(C)(C)C)C1 [Example 37, (2R,4S)-2-((3R)-3-Dimethylamino-pyrrolidine-1-carbonyl)-4-(3-fluoro-phenoxy)-pyrrolidine-1-carboxylic acid tert-butyl ester] | > 10000 nM |
| CC(=O)N1C[C@H](Cc2ccsc2)C[C@H]1C(=O)N1CCCN(C2CCC2)CC1 [Example 183] | 203 nM |
| O=C([C@H]1C[C@H](Oc2cccnc2)CN1)N1CCCN(C2CCC2)CC1 [Example 101, (2R,4S)-2-(4-Cyclobutyl-[1,4]diazepane-1-carbonyl)-4-(Pyridin-3-yloxy)-pyrrolidine] | 3 nM |
| Cc1ccccc1O[C@H]1C[C@H](C(=O)N2CCCN(C3CCC3)CC2)N(C(=O)OC(C)(C)C)C1 [Example 30, (2R,4S)-2-(4-Cyclobutyl-[1,4]diazepane-1-carbonyl)-4-o-tolyloxy-pyrrolidine-1-carboxylic acid tert-butyl ester] | 8 nM |
| CN(C)C1CCN(C(=O)[C@H]2C[C@H](Oc3ccc(F)cc3)CN2C(=O)OC(C)(C)C)CC1 [Example 40, (2R,4S)-2-(4-Dimethylamino-piperidine-1-carbonyl)-4-(4-fluoro-phenoxy)-pyrrolidine-1-carboxylic acid tert-butyl ester] | 1240 nM |
| CC(C)(C)OC(=O)N1C[C@@H](Oc2ccsc2)C[C@@H]1C(=O)N1CCCN(C2CCC2)CC1 [Example 54, (2R,4S)-2-(4-Cyclobutyl-[1,4]diazepane-1-carbonyl)-4-(thiophen-3-yloxy)-pyrrolidine-1-carboxylic acid tert-butyl ester] | 11 nM |
| CC(C)(C)OC(=O)N1C[C@H](O)C[C@@H]1C(=O)N1CCCN(C2CCCC2)CC1 [Example 7, (2R,4R)-2-(4-Cyclopentyl-[1,4]diazepane-1-carbonyl)-4-hydroxy-pyrrolidine-1-carboxylic acid tert-butyl Ester] | 432 nM |
| CC(C)(C)OC(=O)N1C[C@H](Cc2cccc(F)c2)C[C@H]1C(=O)N1CCCN(C2CCC2)CC1 [Example 175, (2S,4R)-2-(4-Cyclobutyl-[1,4]diazepane-1-carbonyl)-4-(3-fluoro-benzyl)-pyrrolidine-1-carboxylic acid tert-butyl ester] | 72 nM |
| CC(C)(C)OC(=O)N1CCC[C@]1(Cc1cccc(F)c1)C(=O)N1CCCN(C2CCC2)CC1 [Example 164, (2S)-2-(4-Cyclobutyl-[1,4]diazepane-1-carbonyl)-2-(3-fluoro-benzyl)-pyrrolidine-1-carboxylic acid tert-butyl ester] | 53 nM |
| CC(C)(C)OC(=O)N1CC[C@H](O)[C@H]1C(=O)N1CCCN(C2CCC2)CC1 [Example 3, (2S,3S)-2-(4-Cyclobutyl-[1,4]diazepane-1-carbonyl)-3-hydroxy-pyrrolidine-1-carboxylic acid tert-butyl Ester] | 1270 nM |
| O=C([C@H]1C[C@@H](O)CN1C(=O)OCc1ccccc1)N1CCCN(C2CCC2)CC1 [Example 9, (2R,4R)-2-(4-Cyclobutyl-[1,4]diazepane-1-carbonyl)-4-hydroxy-pyrrolidine-1-carboxylic Acid Benzyl Ester] | 50 nM |
| CSc1ccc(O[C@@H]2CCN(C(=O)OC(C)(C)C)[C@@H]2C(=O)N2CCCN(C3CCC3)CC2)cc1 [Example 146, (2S,3R)-2-(4-Cyclobutyl-[1,4]diazepane-1-carbonyl)-3-(4-methylsulfanyl-phenoxy)-pyrrolidine-1-carboxylic acid tert-butyl ester] | 1470 nM |
| CC(=O)N1C[C@@H](Oc2ccc3c(c2)OCCO3)C[C@@H]1C(=O)N1CCCN(C2CCC2)CC1 [Example 136, (2R,4S)-1-[2-(4-Cyclobutyl-[1,4]diazepane-1-carbonyl)-4-(2,3-dihydro-benzo[1,4]dioxin-6-yloxy)-pyrrolidin-1-yl]-ethanone] | 2 nM |
| Cc1cnc(O[C@@H]2CN[C@@H](C(=O)N3CCCN(C4CCC4)CC3)C2)cc1I [Example 100, (2R,4S)-2-(4-Cyclobutyl-[1,4]diazepane-1-carbonyl)-4-(4-iodo-5-methyl-pyridin-2-yloxy)-pyrrolidine] | 2 nM |
| COc1cccc(O[C@H]2C[C@H](C(=O)N3CCCN(C4CCC4)CC3)N(C(=O)OC(C)(C)C)C2)c1 [Example 26, (2R,4S)-2-(4-Cyclobutyl-[1,4]diazepane-1-carbonyl)-4-(3-methoxy-phenoxy)-pyrrolidine-1-carboxylic acid tert-butyl ester] | 12 nM |

The next lines start with the values.

| Ki | SMILES |
| --- | --- |
| 12 nM | N#Cc1ccc(O[C@@H]2CN[C@@H](C(=O)N3CCCN(C4CC4)CC3)C2)cc1 [Example 79, (2R,4S)-4-(4-Cyano-phenoxy)-2-(4-cyclopropyl-[1,4]diazepane-1-carbonyl)-pyrrolidine] |
| 40 nM | O=C([C@H]1C[C@H](Oc2ccc(F)cc2)CN1)N1CCN(C2CCCC2)CC1 [Example 80, (2R,4S)-2-(4-Cyclopentyl-piperazine-1-carbonyl)-4-(4-fluoro-phenoxy)-pyrrolidine] |
| 14 nM | CC(C)(C)OC(=O)N1C[C@@H](Oc2ccc(C#N)cc2)C[C@@H]1C(=O)N1CCN(C2CCCC2)CC1 [Example 34, (2R,4S)-4-(4-Cyano-phenoxy)-2-(4-cyclopentyl-piperazine-1-carbonyl)-pyrrolidine-1-carboxylic acid tert-butyl ester] |
| 299 nM | O=C([C@@H]1C[C@@H](Cc2ccc(F)cc2)CN1)N1CCCN(C2CCC2)CC1 [Example 178, (2S,4R)-(4-Cyclobutyl-[1,4]diazepan-1-yl)-[4-(4-fluoro-benzyl)-pyrrolidin-2-yl]-methanone] |
| 3 nM | CC(=O)N1C[C@@H](Oc2cccs2)C[C@@H]1C(=O)N1CCCN(C2CCC2)CC1 [Example 135, (2R,4S)-1-[2-(4-Cyclobutyl-[1,4]diazepane-1-carbonyl)-4-(thiophen-2-yloxy)-pyrrolidin-1-yl]-ethanone] |
| 594 nM | CC(C)N1C[C@@H](Oc2ccc(F)cc2)C[C@H]1C(=O)N1CCCN(C2CCC2)CC1 [Example 108, (2S,4S)-(4-Cyclobutyl-[1,4]diazepan-1-yl)-[4-(4-fluoro-phenoxy)-1-isopropyl-pyrrolidin-2-yl]-methanone] |
| 53 nM | CC(C)(C)OC(=O)N1C[C@H](Cc2ccc(F)cc2)C[C@H]1C(=O)N1CCCN(C2CCC2)CC1 [Example 174, (2S,4R)-2-(4-Cyclobutyl-[1,4]diazepane-1-carbonyl)-4-(4-fluoro-benzyl)pyrrolidine-1-carboxylic acid tert-butyl ester] |
| 6 nM | CC(C)(C)OC(=O)N1C[C@@H](OCc2ccc(F)cc2)C[C@@H]1C(=O)N1CCCN(C2CCC2)CC1 [Example 148, (2R,4S)-2-(4-Cyclobutyl-[1,4]diazepane-1-carbonyl)-4-(4-fluoro-benzyloxy)-pyrrolidine-1-carboxylic acid tert-butyl ester] |
| 5 nM | Cc1cccc(O[C@@H]2CN[C@@H](C(=O)N3CCCN(C4CCC4)CC3)C2)c1 [Example 74, (2R,4S)-4-(4-m-Tolyloxy)-2-(4-cyclobutyl-[1,4]diazepane-1-carbonyl)-pyrrolidine] |
| 55 nM | CCN1C[C@@H](Oc2ccc(F)cc2)C[C@H]1C(=O)N1CCCN(C2CCC2)CC1 [Example 109, (2S,4S)-(4-Cyclobutyl-[1,4]diazepan-1-yl)-[1-ethyl-4-(4-fluoro-phenoxy)-pyrrolidin-2-yl]-methanone] |
| 957 nM | CC(C)(C)OC(=O)N1CC[C@@H](Oc2ccc(F)cc2)[C@H]1C(=O)N1CCCN(C2CCC2)CC1 [Example 144, (2S,3R)-2-(4-Cyclobutyl-[1,4]diazepane-1-carbonyl)-3-(4-fluoro-phenoxy)-pyrrolidine-1-carboxylic acid tert-butyl ester] |
| 23 nM | N#Cc1ccc(O[C@@H]2CN[C@@H](C(=O)N3CCN(C4CCCC4)CC3)C2)cc1 [Example 81, (2R,4S)-4-(4-Cyano-phenoxy)-2-(4-cyclopentyl-piperazine-1-carbonyl)-pyrrolidine] |
| 5 nM | Cc1ccc(O[C@@H]2CN[C@@H](C(=O)N3CCCN(C4CCC4)CC3)C2)cc1 [Example 76, (2R,4S)-4-(4-p-Tolyloxy)-2-(4-cyclobutyl-[1,4]diazepane-1-carbonyl)-pyrrolidine] |
